# Results taken from US20120108665A1, “METHODS AND COMPOSITIONS FOR TREATING OPHTHALMIC CONDITIONS” (REVISION THERAPEUTICS, INC., priority 2009, published 2012).
# Legend:
# [1] = system: RAGE; assay: RAGE immunoreactivity in retina tissue sections of Ins2Akita/+ mice; type: in vivo, mouse; conditions: HPR diet 0.1% w/w, 3 months (FIG. 2)
# Method: (§1) Ins2Akita littermates (aged 2-5 months) were divided into two groups. One group received a specialized rodent diet containing HPR (0.1%, w/w). The second group received a rodent chow which was not supplemented with HPR. Mice ingested these diets ad libitum for 3 months (except where indicated). Serum retinol and glucose levels were regularly monitored throughout the treatment period. At the end of the treatment period, the mice were euthanized and eyecups were prepared for biochemical and immunohistochemical analyses.
# (§2) Panels A and D are from Ins2Akita/+ mice fed the control diet. Panels B and E are from Ins2/Akita/+ mice fed the HPR-supplemented diet. Panels C and E are from age-matched wild-type mice. Arrows in panels A and D show disruption of the GCL and RAGE immunoreactivity.
# [2] = system: ganglion cell layer; assay: Retinal histology (toludine blue staining) of ganglion cell layer in Ins2Akita/+ mice; type: in vivo, mouse; conditions: HPR diet 0.1% w/w
# Method: as §1, §2
# [3] = system: primary human retinal microvascular endothelial cells; assay: In vitro capillary tube formation assay; type: cell-based; conditions: HPR 10 mM; VEGF 10 ng/ml pretreatment; cells on Cultrex BME in 0.1% FBS (FIG. 6)
# Text: (§3) We set out to directly test the angiogenic properties of HPR in three different models of ocular angiogenesis. In the first, we induced angiogenesis in vitro by exposing primary human retinal microvascular endothelial cells to growth factors in the tube formation assay. Second, we utilized slow release pellets containing growth factor to induce angiogenesis in the corneal micropocket assay. Next, we looked at the effect of HPR treatment on angiogenesis in a transgenic animal model of early-onset retinal neovascularization, the very-low-density lipoprotein receptor (VLDLR) knockout mouse (vldlr−/−).
# In parallel experiments, cells were pretreated with VEGF (10 ng/ml) and HPR ([…]) respectively. The cells were then plated in 0.1% FBS or 0.1% FBS-[…] HPR.
# [4] = system: Ins2Akita/+ mice; assay: Serum glucose (hyperglycemia) monitoring in Ins2Akita/+ diabetic mice fed HPR-supplemented diet; type: in vivo, mouse; conditions: diet containing HPR 0.1% w/w ad libitum, glucose at 7-day intervals (FIG. 1B)
# Method: as §1
# (§4) Serum levels of retinol at day 30 (panel A) and glucose at 7-day intervals (panel B) are shown. The dashed line in panel B indicates mean glucose levels in wild-type mice.
# [5] = system: VLDLR-/- knockout mice; assay: Retinal vascular leakage in VLDLR-/- knockout mice (retinal neovascularization model); type: in vivo, mouse; conditions: 0.1% HPR (w/w) chow 8 weeks, retinal flat mounts after FITC-dextran perfusion (FIG. 8)
# Text: as §3
# VLDLR^−/− mice were fed either control or 0.1% HPR (w/w)-supplemented chow ad libitum for 8 weeks. The extent of retinal leakage was then assessed in retinal flat mounts after FITC-dextran perfusion.
# [6] = system: phosphorylated p38 MAPK; assay: Phosphorylated p38 MAPK immunoreactivity in RPE of Ins2Akita/+ mice; type: in vivo, mouse; conditions: HPR diet 0.1% w/w, 3 months (FIG. 4)
# Method: as §1
# Tissue sections from these mice were probed for phosphorylated p38 MAPK, a mediator of apoptotic cell death.
# [7] = system: wild type Balb/c mice; assay: In vivo corneal micropocket assay (bFGF pellets); design: species or system mouse; conditions: 0.1% (w/w) HPR chow 8 weeks, bFGF ~80 ng/pellet, assessed 5 days later, FITC-dextran (FIG. 7)
# Text: as §3
# At the end of this period, standardized slow release pellets containing bFGF (˜80 ng/pellet) were surgically inserted into the normally avascular corneas of the mice in the study. Blank pellets were implanted in the left eye. Vessel formation was assessed 5 days later when the mice were perfused with FITC-dextran and the eyes were enucleated and photographed. FIG. 7: Bright field (A-F) and fluorescence (G-L) images showing vessel growth (arrows) and the approximate location of the pellets (ovals).
# [8] = system: serum RBP-retinol; assay: Serum retinol monitoring in Ins2Akita/+ diabetic mice fed HPR-supplemented diet; type: in vivo, mouse; conditions: diet containing HPR 0.1% w/w ad libitum, retinol at day 30 (FIG. 1A)
# Method: as §1, §4
# [9] = system: advanced glycation end products (AGEs); assay: AGE immunoreactivity in retina tissue sections of Ins2Akita/+ mice; type: in vivo, mouse; conditions: HPR diet 0.1% w/w, 3 months (FIG. 3)
# Method: as §1
# [10] = system: VEGF; assay: VEGF expression in retina of Ins2Akita/+ mice; type: in vivo, mouse; conditions: HPR diet 0.1% w/w, 3 months (FIG. 5)
# Method: as §1
structure (smiles),measurement,setting,value
"CC1=C(/C=C/C(C)=C/C=C/C(C)=C/C(=O)Nc2ccc(O)cc2)C(C)(C)CCC1 [HPR, N-(4-hydroxyphenyl)retinamide]",RAGE immunoreactivity in the GCL,[1],very little
same,preservation of ganglion cell layer and inner nuclear layer,[2]; 3 months (FIG. 5),remarkable preservation
same,integrity of the ganglion cell layer (GCL),"[2]; 3 months, toludine blue staining (FIG. 2)",well preserved
same,tube formation,[3],reduced
same,effect on hyperglycemia (serum glucose),[4],has no effect
same,extent of retinal vascular leakage,[5],significant reduction
same,p38 MAPK immunoreactivity in the RPE,[6],barely detectable
same,bFGF-induced corneal vessel growth (angiogenic response),[7],striking reduction
same,serum RBP-retinol,[8],significantly reduces
same,AGE immunoreactivity in the retina,[9],significantly reduced
same,VEGF expression in all retina sublayers,[10],dramatically reduced
